ChEMBL document CHEMBL1201862, “PubChem BioAssay data set” (2004)
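A five-concentration, 48-hour dose response in 96-well plates underlies each endpoint, interpolated linearly between surrounding concentrations. The concentration for 50% growth inhibition is given as GI50.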 Calls of active or inactive are those of the source. Cut-off read from the data, not from the text of the source: active = GI50 up to about 1.1 µM and inactive = higher.

What was measured:
Experiment in all cases: DTP human tumour cell line panel, 48 h
SNB-75 = test system: SNB-75
KM12 = test system: KM12
RXF 393 = test system: RXF 393
DU-145 = test system: DU-145
IGROV-1 = test system: IGROV-1
LOX IMVI = test system: LOX IMVI
OVCAR-5 = test system: OVCAR-5
SW-620 = test system: SW-620
SF-539 = test system: SF-539
NCI-H522 = test system: NCI-H522
SK-MEL-5 = test system: SK-MEL-5
UACC-62 = test system: UACC-62
MOLT-4 = test system: MOLT-4
MDA-MB-435 = test system: MDA-MB-435
TK-10 = test system: TK-10
U-251 = test system: U-251
HCT-15 = test system: HCT-15
ACHN = test system: ACHN
Hs-578T = test system: Hs-578T
MCF7 = test system: MCF7
M14 = test system: M14
SK-MEL-2 = test system: SK-MEL-2
SF-295 = test system: SF-295
SNB-19 = test system: SNB-19
NCI-H226 = test system: NCI-H226
SK-MEL-28 = test system: SK-MEL-28
NCI/ADR-RES = test system: NCI/ADR-RES
NCI-H460 = test system: NCI-H460
CAKI-1 = test system: CAKI-1
HOP-92 = test system: HOP-92
BT-549 = test system: BT-549
UO-31 = test system: UO-31
K562 = test system: K562
A498 = test system: A498
HCT-116 = test system: HCT-116
A549 = test system: A549
HCC 2998 = test system: HCC 2998
OVCAR-8 = test system: OVCAR-8
COLO 205 = test system: COLO 205
SR = test system: SR
SF-268 = test system: SF-268
PC-3 = test system: PC-3
Malme-3M = test system: Malme-3M
SN12C = test system: SN12C
OVCAR-4 = test system: OVCAR-4
T47D = test system: T47D
EKVX = test system: EKVX
HOP-62 = test system: HOP-62
CCRF-CEM = test system: CCRF-CEM
RPMI-8226 = test system: RPMI-8226
UACC-257 = test system: UACC-257
MDA-N = test system: MDA-N
OVCAR-3 = test system: OVCAR-3
MDA-MB-231 = test system: MDA-MB-231
HT-29 = test system: HT-29
786-0 = test system: 786-0
NCI-H23 = test system: NCI-H23
SK-OV-3 = test system: SK-OV-3
HL-60 = test system: HL-60

## Nc1cc2c3c(cccc3c1)C(=O)N(c1ccc(OCCN3CCCC3)cc1)C2=O
SNB-75
  GI50: 3.94 µM (inactive)
KM12
  GI50: 16.1 µM (inactive)
RXF 393
  GI50: 14.2 µM (inactive)
DU-145
  GI50: 27.4 µM (inactive)
IGROV-1
  GI50: 16.3 µM (inactive)
LOX IMVI
  GI50: 17 µM (inactive)
OVCAR-5
  GI50: 21.1 µM (inactive)
SW-620
  GI50: 29.4 µM (inactive)
SF-539
  GI50: 13.3 µM (inactive)
NCI-H522
  GI50: 16 µM (inactive)
SK-MEL-5
  GI50: 18.7 µM (inactive)
UACC-62
  GI50: 16.6 µM (inactive)
MOLT-4
  GI50: 18.5 µM (inactive)
MDA-MB-435
  GI50: 18.7 µM (inactive)
TK-10
  GI50: 17.5 µM (inactive)
U-251
  GI50: 25.6 µM (inactive)
HCT-15
  GI50: 13.8 µM
ACHN
  GI50: 13.5 µM (inactive)
Hs-578T
  GI50: 18.7 µM (inactive)
MCF7
  GI50: 17.3 µM (inactive)
M14
  GI50: 20.7 µM (inactive)
SK-MEL-2
  GI50: 19.4 µM (inactive)
SF-295
  GI50: 13.5 µM (inactive)
SNB-19
  GI50: 17.2 µM (inactive)
NCI-H226
  GI50: 14.5 µM (inactive)
SK-MEL-28
  GI50: 20.3 µM (inactive)
NCI/ADR-RES
  GI50: 23.9 µM (inactive)
NCI-H460
  GI50: 11.5 µM (inactive)
CAKI-1
  GI50: 45.3 µM (inactive)
HOP-92
  GI50: 17.8 µM (inactive)
BT-549
  GI50: 15.8 µM (inactive)
UO-31
  GI50: 15.1 µM (inactive)
K562
  GI50: 14.5 µM (inactive)
A498
  GI50: 36.5 µM (inactive)
HCT-116
  GI50: 14.7 µM (inactive)
A549
  GI50: 16.2 µM (inactive)
HCC 2998
  GI50: 17.5 µM (inactive)
OVCAR-8
  GI50: 15.9 µM (inactive)
COLO 205
  GI50: 14.1 µM (inactive)
SR
  GI50: 17.9 µM (inactive)
SF-268
  GI50: 21.3 µM (inactive)
PC-3
  GI50: 21.4 µM (inactive)
Malme-3M
  GI50: 17.7 µM (inactive)
SN12C
  GI50: 21.8 µM (inactive)
OVCAR-4
  GI50: 17.1 µM (inactive)
T47D
  GI50: 21.2 µM (inactive)
EKVX
  GI50: 18.4 µM (inactive)
HOP-62
  GI50: 15.9 µM (inactive)
CCRF-CEM
  GI50: 23.3 µM (inactive)
RPMI-8226
  GI50: 22.4 µM (inactive)
UACC-257
  GI50: 16.2 µM (inactive)
MDA-N
  GI50: 16.6 µM (inactive)
OVCAR-3
  GI50: 16 µM (inactive)
MDA-MB-231
  GI50: 24.8 µM (inactive)
HT-29
  GI50: 13.5 µM (inactive)
786-0
  GI50: 15.2 µM (inactive)
NCI-H23
  GI50: 14.4 µM (inactive)
SK-OV-3
  GI50: 1.61 µM (inactive)

## COC(C(O)CO)C(O)C(O)C(=O)NNc1ccccc1 (centres undefined)
SNB-75
  GI50: > 100 µM (inactive)
KM12
  GI50: 23.6 µM (inactive)
RXF 393
  GI50: > 100 µM (inactive)
DU-145
  GI50: > 100 µM (inactive)
HL-60
  GI50: 6.32 µM (inactive)
IGROV-1
  GI50: 47.4 µM (inactive)
LOX IMVI
  GI50: 2.92 µM (inactive)
OVCAR-5
  GI50: > 100 µM (inactive)
SW-620
  GI50: 8.49 µM (inactive)
SF-539
  GI50: 22.4 µM (inactive)
NCI-H522
  GI50: > 100 µM (inactive)
SK-MEL-5
  GI50: 37.2 µM (inactive)
UACC-62
  GI50: 5.33 µM (inactive)
MOLT-4
  GI50: > 100 µM (inactive)
MDA-MB-435
  GI50: 40.3 µM (inactive)
TK-10
  GI50: > 100 µM (inactive)
U-251
  GI50: > 100 µM (inactive)
HCT-15
  GI50: > 100 µM
ACHN
  GI50: > 100 µM (inactive)
Hs-578T
  GI50: > 100 µM (inactive)
MCF7
  GI50: 39.2 µM (inactive)
M14
  GI50: 57.7 µM (inactive)
SK-MEL-2
  GI50: 38.9 µM (inactive)
SF-295
  GI50: 21 µM (inactive)
SNB-19
  GI50: > 100 µM (inactive)
SK-MEL-28
  GI50: > 100 µM (inactive)
NCI/ADR-RES
  GI50: 16.5 µM (inactive)
NCI-H460
  GI50: 9.46 µM (inactive)
CAKI-1
  GI50: 18.6 µM (inactive)
HOP-92
  GI50: > 100 µM (inactive)
BT-549
  GI50: > 100 µM (inactive)
UO-31
  GI50: > 100 µM (inactive)
K562
  GI50: 4.05 µM (inactive)
A498
  GI50: > 100 µM (inactive)
HCT-116
  GI50: > 100 µM (inactive)
A549
  GI50: > 100 µM (inactive)
HCC 2998
  GI50: > 100 µM (inactive)
OVCAR-8
  GI50: > 100 µM (inactive)
COLO 205
  GI50: 11.7 µM (inactive)
SR
  GI50: > 100 µM (inactive)
SF-268
  GI50: 23.3 µM (inactive)
PC-3
  GI50: > 100 µM (inactive)
Malme-3M
  GI50: > 100 µM (inactive)
SN12C
  GI50: > 100 µM (inactive)
T47D
  GI50: 23.2 µM (inactive)
EKVX
  GI50: 21.7 µM (inactive)
HOP-62
  GI50: > 100 µM (inactive)
CCRF-CEM
  GI50: 42.7 µM (inactive)
RPMI-8226
  GI50: 47.5 µM (inactive)
UACC-257
  GI50: > 100 µM (inactive)
MDA-N
  GI50: 20 µM (inactive)
OVCAR-3
  GI50: > 100 µM (inactive)
MDA-MB-231
  GI50: > 100 µM (inactive)
HT-29
  GI50: > 100 µM (inactive)
786-0
  GI50: > 100 µM (inactive)
NCI-H23
  GI50: > 100 µM (inactive)
SK-OV-3
  GI50: > 100 µM (inactive)

## CCc1c(N=[N+]=[N-])c2ccccc2oc1=O
SNB-75
  GI50: 69.3 µM (inactive)
KM12
  GI50: > 100 µM (inactive)
RXF 393
  GI50: > 100 µM (inactive)
DU-145
  GI50: > 100 µM (inactive)
HL-60
  GI50: > 100 µM (inactive)
IGROV-1
  GI50: 49.7 µM (inactive)
LOX IMVI
  GI50: > 100 µM (inactive)
SW-620
  GI50: > 100 µM (inactive)
SF-539
  GI50: > 100 µM (inactive)
NCI-H522
  GI50: > 100 µM (inactive)
UACC-62
  GI50: > 100 µM (inactive)
MOLT-4
  GI50: > 100 µM (inactive)
MDA-MB-435
  GI50: > 100 µM (inactive)
TK-10
  GI50: > 100 µM (inactive)
U-251
  GI50: > 100 µM (inactive)
HCT-15
  GI50: > 100 µM
ACHN
  GI50: > 100 µM (inactive)
Hs-578T
  GI50: 49.8 µM (inactive)
MCF7
  GI50: > 100 µM (inactive)
M14
  GI50: > 100 µM (inactive)
SF-295
  GI50: > 100 µM (inactive)
NCI-H226
  GI50: > 100 µM (inactive)
SK-MEL-28
  GI50: > 100 µM (inactive)
NCI/ADR-RES
  GI50: > 100 µM (inactive)
NCI-H460
  GI50: > 100 µM (inactive)
HOP-92
  GI50: > 100 µM (inactive)
BT-549
  GI50: > 100 µM (inactive)
UO-31
  GI50: > 100 µM (inactive)
K562
  GI50: > 100 µM (inactive)
A498
  GI50: > 100 µM (inactive)
HCT-116
  GI50: > 100 µM (inactive)
A549
  GI50: > 100 µM (inactive)
HCC 2998
  GI50: > 100 µM (inactive)
OVCAR-8
  GI50: > 100 µM (inactive)
COLO 205
  GI50: > 100 µM (inactive)
SR
  GI50: > 100 µM (inactive)
SF-268
  GI50: > 100 µM (inactive)
PC-3
  GI50: > 100 µM (inactive)
Malme-3M
  GI50: > 100 µM (inactive)
SN12C
  GI50: > 100 µM (inactive)
OVCAR-4
  GI50: > 100 µM (inactive)
T47D
  GI50: > 100 µM (inactive)
EKVX
  GI50: 36.3 µM (inactive)
HOP-62
  GI50: > 100 µM (inactive)
CCRF-CEM
  GI50: > 100 µM (inactive)
RPMI-8226
  GI50: > 100 µM (inactive)
UACC-257
  GI50: > 100 µM (inactive)
MDA-N
  GI50: > 100 µM (inactive)
OVCAR-3
  GI50: > 100 µM (inactive)
MDA-MB-231
  GI50: > 100 µM (inactive)
HT-29
  GI50: > 100 µM (inactive)
786-0
  GI50: > 100 µM (inactive)
NCI-H23
  GI50: > 100 µM (inactive)
SK-OV-3
  GI50: > 100 µM (inactive)
